Test results published in ChEMBL document CHEMBL4393738, “Design of hybrid molecules as antimycobacterial compounds: Synthesis of isoniazid-naphthoquinone derivatives and their activity against susceptible and resistant strains of Mycobacterium tuberculosis” (Bioorg Med Chem, 2019).
Converted amounts (≈) assume the structure as drawn.

Legend:
[1] = Selectivity index, ratio of IC50 for mouse J774.A1 cells to MIC for Mycobacterium tuberculosis INH R1 ATCC 35822; assay type: toxicity; settings: read-out: Selectivity Index
[2] = Selectivity index, ratio of IC50 for mouse J774.A1 cells to MIC for Mycobacterium tuberculosis INH R2; assay type: toxicity; settings: read-out: Selectivity Index
[3] = test system: J774.A1; assay: Cytotoxicity against mouse J774.A1 cells measured after 24 hrs by resazurin based assay; assay type: cell-based; settings: J774.A1, 24 h
[4] = Selectivity index, ratio of IC50 for mouse J774.A1 cells to MIC for Mycobacterium tuberculosis H37Rv; assay type: toxicity; settings: read-out: Selectivity Index

SMILES	selectivity ratio [1]	selectivity ratio [2]	IC50 [3]	selectivity ratio [4]
CC1(C)OC2=C(CC1Br)C(=O)C(=O)c1ccccc12 (stereo not given)	0.3	0.6	1.93 µg/mL (≈ 6.01 µM)	0.3
CC1(C)OC2=C(C(=O)C(=O)c3ccccc32)C1Nc1ccccc1 (stereo not given)	0.6	0.3	1.82 µg/mL (≈ 5.7 µM)	0.6
O=C1C(=O)c2ccccc2C2=C1CC(Cn1cc(-c3ccccc3)nn1)O2 (stereo not given)	0.1	0.1	2.94 µg/mL (≈ 8.23 µM)	0.2
CC1CC2=C(O1)c1ccccc1/C(=N/NC(=O)c1ccncc1)C2=O (stereo not given)	> 16	> 8	> 200 µg/mL	> 16
CC1(C)OC2=C(CC1I)C(=O)C(=O)c1ccccc12 (stereo not given)	1	0.5	3.2 µg/mL (≈ 8.69 µM)	1
CC1(C)OC2=C(C(=O)/C(=N\NC(=O)c3ccncc3)c3ccccc32)[C@H](n2cc(-c3ccccc3)nn2)[C@H]1Br	0.9	< 0.9	175 µg/mL (≈ 300 µM)	0.9
CC1(C)CC2=C(O1)c1ccccc1/C(=N/NC(=O)c1ccncc1)C2=O	> 4	> 32	> 200 µg/mL	> 250
CC1(C)OC2=C(CC1Br)C(=O)/C(=N\NC(=O)c1ccncc1)c1ccccc12 (stereo not given)	> 16	> 16	> 200 µg/mL	> 16
CC1(C)OC2=C(C(=O)/C(=N\NC(=O)c3ccncc3)c3ccccc32)C1n1cc(-c2ccccc2)nn1 (stereo not given)	8.1	8.1	101 µg/mL (≈ 207 µM)	8.1
CC1(C)OC2=C(C(=O)C(=O)c3ccccc32)C1n1cc(-c2ccccc2)nn1 (stereo not given)	0.1	0.1	2.11 µg/mL (≈ 5.68 µM)	0.3
O=C1C2=C(OC(Cn3cc(-c4ccccc4)nn3)C2)c2ccccc2/C1=N/NC(=O)c1ccncc1 (stereo not given)	0.4	0.4	18.4 µg/mL (≈ 38.6 µM)	1.5
CC1(C)OC2=C(C(=O)/C(=N\NC(=O)c3ccncc3)c3ccccc32)C1Nc1ccccc1 (stereo not given)	0.7	3	74.2 µg/mL (≈ 169 µM)	3
CC1(C)OC2=C(C(=O)/C(=N\NC(=O)c3ccncc3)c3ccccc32)C1O (stereo not given)	> 1	> 2	> 200 µg/mL	> 32
CC1(C)CC2=C(O1)/C(=N\NC(=O)c1ccncc1)c1ccccc1C2=O	0.2	0.1	17 µg/mL (≈ 48.9 µM)	0.7
CC1(C)CCC2=C(O1)c1ccccc1/C(=N/NC(=O)c1ccncc1)C2=O	> 4	> 32	> 200 µg/mL	> 250
CC1(C)OC2=C(CC1I)C(=O)/C(=N\NC(=O)c1ccncc1)c1ccccc12 (stereo not given)	0.3	0.3	30.8 µg/mL (≈ 63.1 µM)	0.3
CC1(C)OC2=C(C(=O)C(=O)c3ccccc32)C1O (stereo not given)	0.1	0.1	3.67 µg/mL (≈ 15 µM)	0.3
CC1(C)CC2=C(O1)C(=O)c1ccccc1C2=O	0.7	0.7	18.6 µg/mL (≈ 81.6 µM)	1.5
CC1(C)OC2=C(C(=O)C(=O)c3ccccc32)[C@H](n2cc(-c3ccccc3)nn2)[C@H]1Br (racemic)	0.2	0.1	1.47 µg/mL (≈ 3.17 µM)	0.9
CC1(C)CCC2=C(O1)C(=O)c1ccccc1C2=O [ALPHA-LAPACHONE]	–	–	285 µg/mL (≈ 1180 µM)	–
CC1(C)CCC2=C(O1)c1ccccc1C(=O)C2=O [LAPACHONE]	> 64	> 32	> 200 µg/mL	> 32
CC1(C)CC2=C(O1)c1ccccc1C(=O)C2=O [NOR-BETA-LAPACHONE]	0.3	0.6	3.69 µg/mL (≈ 16.2 µM)	1.2
